Patent publication US9169254B2, “Spiroimidazolone derivative” (Chugai Seiyaku Kabushiki Kaisha, priority 2009, dated 2015)

target: T1, human PTH1 receptor (Homo sapiens, UniProt Q03431); assay: In vitro cAMP signal activity in HKRK-B7 cells (LLC-PK1 cells overexpressing the human PTH1 receptor); assay type: cell-based; details: HKRK-B7 cells; compound at 1×10^−3 M; cAMP produced as percentage of that produced by hPTH(1-34) at 100 nM
T1 sequence (Q03431 27-593): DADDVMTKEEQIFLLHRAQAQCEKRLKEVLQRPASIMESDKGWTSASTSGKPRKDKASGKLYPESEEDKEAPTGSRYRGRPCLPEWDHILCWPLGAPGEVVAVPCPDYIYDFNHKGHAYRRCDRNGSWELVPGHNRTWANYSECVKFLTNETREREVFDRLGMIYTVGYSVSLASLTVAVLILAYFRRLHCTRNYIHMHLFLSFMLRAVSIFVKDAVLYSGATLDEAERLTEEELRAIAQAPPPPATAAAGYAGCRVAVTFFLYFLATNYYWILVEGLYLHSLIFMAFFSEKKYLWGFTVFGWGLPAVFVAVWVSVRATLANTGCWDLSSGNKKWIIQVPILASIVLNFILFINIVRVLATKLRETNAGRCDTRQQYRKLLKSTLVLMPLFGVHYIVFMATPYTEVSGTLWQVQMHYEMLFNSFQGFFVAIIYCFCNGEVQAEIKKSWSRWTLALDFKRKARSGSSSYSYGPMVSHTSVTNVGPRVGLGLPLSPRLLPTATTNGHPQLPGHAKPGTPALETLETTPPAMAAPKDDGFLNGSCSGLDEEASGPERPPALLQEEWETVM

Going from `CCCCCC#CCCC1=NC2(CCN([S@TB17](=O)(=O)CCc3c(C)cc(N(C)C(N)=O)cc3C)CC2)C(=O)N1` [Compound 1082, 1-{3,5-dimethyl-4-[2-(2-non-3-ynyl-4-oxo-1,3,8-triaza-spiro[4.5]dec-1-ene-8-sulfonyl)-ethyl]-phenyl}-1-methyl-urea] to `CCCCCCCCCCCC1=NC2(CCN([S@TB17](=O)(=O)CCc3c(C)cc(N(C)C(N)=O)cc3C)CC2)C(=O)N1` [Compound 1141, 1-{3,5-dimethyl-4-[2-(4-oxo-2-undecyl-1,3,8-triaza-spiro[4.5]dec-1-ene-8-sulfonyl)-ethyl]-phenyl}-1-methyl-urea], the “cAMP production activity (%)” value rises from 22% to 83%.

First: Cc1cc(OCCC(O)CO)ccc1/C=C/S(=O)(=O)N1CCC2(CC1)N=C(c1cccc(OC(F)(F)F)c1)NC2=O (centres unmarked) [Compound 531, 8-{(E)-2-[4-(3,4-dihydroxy-butoxy)-2-methyl-phenyl]-ethenesulfonyl}-2-(3-trifluoromethoxy-phenyl)-1,3,8-triaza-spiro[4.5]dec-1-en-4-one]
Second: Cc1cc(S(=O)(=O)NCCCO)ccc1/C=C/S(=O)(=O)N1CCC2(CC1)N=C(c1cccc(OC(F)(F)F)c1)NC2=O [Compound 224, N-(3-Hydroxy-propyl)-3-methyl-4-{(E)-2-[4-oxo-2-(3-trifluoromethoxy-phenyl)-1,3,8-triaza-spiro[4.5]dec-1-ene-8-sulfonyl]-vinyl}-benzenesulfonamide]
The “cAMP production activity (%)” value of the first is higher: 69% for the first, 54% for the second.

First: [2H]C([2H])([2H])N(C(N)=O)c1cc(C)c(CCS(=O)(=O)N2CCC3(CC2)N=C(c2ccc(F)c(C(F)(F)F)c2)NC3=O)c(C)c1 [Compound 1391, 1-(4-{2-[2-(4-fluoro-3-trifluoromethyl-phenyl)-4-oxo-1,3,8-triaza-spiro[4.5]dec-1-ene-8-sulfonyl]-ethyl}-3,5-dimethyl-phenyl)-1-[1,1,1-^2H3]methyl-urea]
Second: CC(=O)N(C)c1ccc(CCS(=O)(=O)N2CCC3(CC2)N=C(c2cccc(OC(F)(F)F)c2)NC3=O)c(C)c1 [Compound 299, N-methyl-N-(3-methyl-4-{2-[4-oxo-2-(3-trifluoromethoxy-phenyl)-1,3,8-triaza-spiro[4.5]dec-1-ene-8-sulfonyl]-ethyl}-phenyl)-acetamide]
The “cAMP production activity (%)” value of the first is higher: 116% for the first, 83% for the second.

Compared with `CC(=O)N(C)c1ccc(/C=C/CS(=O)(=O)N2CCC3(CC2)N=C(C2CCC(C)CC2)NC3=O)c(C)c1` (centres unmarked) [Compound 744, N-Methyl-N-(3-methyl-4-{(E)-3-[2-(4-methyl-cyclohexyl)-4-oxo-1,3,8-triaza-spiro[4.5]dec-1-ene-8-sulfonyl]-propenyl}-phenyl)-acetamide], `CC(C)(C)[C@H]1CC[C@H](C2=NC3(CCN(S(=O)(=O)c4cccc(Cl)c4)CC3)C(=O)N2)CC1` [Compound 26, 2-(4-tert-butyl-cyclohexyl)-8-(3-chloro-benzenesulfonyl)-1,3,8-triaza-spiro[4.5]dec-1-en-4-one] is higher in “cAMP production activity (%)” value: 19% for the first, 36% for the second.

Going from `Cc1cc(C(=O)N2CCC(C)(O)CC2)cc(C)c1CCS(=O)(=O)N1CCC2(CC1)N=C(c1ccc3c(c1)OC(F)(F)O3)NC2=O` [Compound 1336, 2-(2,2-difluoro-benzo[1,3]dioxol-5-yl)-8-{2-[4-(4-hydroxy-4-methyl-piperidine-1-carbonyl)-2,6-dimethyl-phenyl]-ethanesulfonyl}-1,3,8-triaza-spiro[4.5]dec-1-en-4-one] to `Cc1cc(C(=O)N2CCC(O)(CF)CC2)cc(C)c1/C=C/S(=O)(=O)N1CCC2(CC1)N=C(c1ccc(F)c(Cl)c1)NC2=O` [Compound 1242, 2-(3-chloro-4-fluoro-phenyl)-8-{(E)-2-[4-(4-fluoromethyl-4-hydroxy-piperidine-1-carbonyl)-2,6-dimethyl-phenyl]-ethenesulfonyl}-1,3,8-triaza-spiro[4.5]dec-1-en-4-one], the “cAMP production activity (%)” value falls from 133% to 106%.

Compared with `O=C1NC(C2CCCCC2)=NC12CCN(S(=O)(=O)/C=C/c1ccc3c(ccn3C[C@H](O)CO)c1)CC2` [Compound 702, 2-Cyclohexyl-8-{(E)-2-[1-((S)-2,3-dihydroxy-propyl)-1H-indol-5-yl]-ethenesulfonyl}-1,3,8-triaza-spiro[4.5]dec-1-en-4-one], `CC(=O)Nc1ccc(CCS(=O)(=O)N2CCC3(CC2)N=C(C2CCCCC2)NC3=O)cc1` [Compound 167, N-{4-[2-(2-Cyclohexyl-4-oxo-1,3,8-triaza-spiro[4.5]dec-1-ene-8-sulfonyl)-ethyl]-phenyl}-acetamide] is lower in “cAMP production activity (%)” value: 84% for the first, 44% for the second.

Compared with `Cc1cc(N(C)C(N)=O)cc(C)c1CC[S@TB4](=O)(=O)N1CCC2(CC1)N=C(CCCCCCCCCCC(F)F)NC2=O` [Compound 1156, 1-(4-{2-[2-(11,11-difluoro-undecyl)-4-oxo-1,3,8-triaza-spiro[4.5]dec-1-ene-8-sulfonyl]-ethyl}-3,5-dimethyl-phenyl)-1-methyl-urea], `Cc1cc(N(C)C(N)=O)cc(C)c1/C=C/S(=O)(=O)N1CCC2(CC1)N=C(CCCCCCCCCC(N)=O)NC2=O` [Compound 1172, 10-(8-{(E)-2-[2,6-Dimethyl-4-(1-methyl-ureido)-phenyl]-ethenesulfonyl}-4-oxo-1,3,8-triaza-spiro[4.5]dec-1-en-2-yl)-decanoic amide] is lower in “cAMP production activity (%)” value: 77% for the first, 73% for the second.

Compared with `CNc1cc(C)c(/C=C/S(=O)(=O)N2CCC3(CC2)N=C(c2cccc(SC(F)(F)F)c2)NC3=O)c(C)c1` [Compound 1016, 8-[(E)-2-(2,6-Dimethyl-4-methylamino-phenyl)-ethenesulfonyl]-2-(3-trifluoromethylsulfanyl-phenyl)-1,3,8-triaza-spiro[4.5]dec-1-en-4-one], `Cc1cc(C(=O)N(C)C)cc(C)c1/C=C/S(=O)(=O)N1CCC2(CC1)N=C(c1cccc(C(F)(F)F)c1)NC2=O` [Compound 383, 3,5,N,N-Tetramethyl-4-{(E)-2-[4-oxo-2-(3-trifluoromethyl-phenyl)-1,3,8-triaza-spiro[4.5]dec-1-ene-8-sulfonyl]-vinyl}-benzamide] is lower in “cAMP production activity (%)” value: 92% for the first, 72% for the second.

Compared with `Cc1cc(C(=O)N2CCN(CCCN(C)C)CC2)cc(C)c1/C=C/S(=O)(=O)N1CCC2(CC1)N=C(c1cccc(OC(F)(F)F)c1)NC2=O` [Compound 397, 8-((E)-2-{4-[4-(3-dimethylamino-propyl)-piperazine-1-carbonyl]-2,6-dimethyl-phenyl}-ethenesulfonyl)-2-(3-trifluoromethoxy-phenyl)-1,3,8-triaza-spiro[4.5]dec-1-en-4-one], `Cc1cc(C(=O)N2CCC(C)(O)CC2)cc(C)c1/C=C/[S@TB4](=O)(=O)N1CCC2(CC1)N=C(c1cccc(OCCCC(F)(F)C(F)(F)F)c1)NC2=O` [Compound 1096, 8-{(E)-2-[4-(4-hydroxy-4-methyl-piperidine-1-carbonyl)-2,6-dimethyl-phenyl]-ethenesulfonyl}-2-[3-(4,4,5,5,5-pentafluoro-pentyloxy)-phenyl]-1,3,8-triaza-spiro[4.5]dec-1-en-4-one] is lower in “cAMP production activity (%)” value: 126% for the first, 93% for the second.

Compared with `[2H]C([2H])([2H])C([2H])(Oc1ccc(C2=NC3(CCN(S(=O)(=O)/C=C/c4c(C)cc(C(=O)N5CCC(C)(O)CC5)cc4C)CC3)C(=O)N2)cc1C(F)(F)F)C([2H])([2H])[2H]` [Compound 1222, 8-{(E)-2-[4-(4-hydroxy-4-methyl-piperidine-1-carbonyl)-2,6-dimethyl-phenyl]-ethenesulfonyl}-2-(4-[1,2,2,2,2,2,2-^2H7]isopropoxy-3-trifluoromethyl-phenyl)-1,3,8-triaza-spiro[4.5]dec-1-en-4-one], `Cc1cc(C(=O)N2CCC(O)CC2)cc(C)c1/C=C/S(=O)(=O)N1CCC2(CC1)N=C(c1ccc(F)c(OCCCC(F)(F)C(F)(F)F)c1)NC2=O` [Compound 1091, 2-[4-Fluoro-3-(4,4,5,5,5-pentafluoro-pentyloxy)-phenyl]-8-{(E)-2-[4-(4-hydroxy-piperidine-1-carbonyl)-2,6-dimethyl-phenyl]-ethenesulfonyl}-1,3,8-triaza-spiro[4.5]dec-1-en-4-one] is higher in “cAMP production activity (%)” value: 77% for the first, 118% for the second.

Compared with `CC1CCC(C2=NC3(CN(S(=O)(=O)CCc4cccc5ccccc45)C3)C(=O)N2)CC1` (centres unmarked) [Compound 1104, 6-(4-Methyl-cyclohexyl)-2-(2-naphthalen-1-yl-ethanesulfonyl)-2,5,7-triaza-spiro[3.4]oct-5-en-8-one], `Cc1onc(-c2ccccc2)c1S(=O)(=O)N1CCC2(CC1)N=C(C1CCCCC1)NC2=O` [Compound 52, 2-cyclohexyl-8-(5-methyl-3-phenyl-isoxazole-4-sulfonyl)-1,3,8-triaza-spiro[4.5]dec-1-en-4-one] is higher in “cAMP production activity (%)” value: 16% for the first, 23% for the second.

With `Cc1cc(C(=O)N2CCC(CCO)CC2)ccc1CCS(=O)(=O)N1CCC2(CC1)N=C(c1cccc(C(F)(F)F)c1)NC2=O` [Compound 357, 8-(2-{4-[4-(2-hydroxy-ethyl)-piperidine-1-carbonyl]-2-methyl-phenyl}-ethanesulfonyl)-2-(3-trifluoromethyl-phenyl)-1,3,8-triaza-spiro[4.5]dec-1-en-4-one] the “cAMP production activity (%)” value was 78%.
